Laboratory results: ChEMBL document CHEMBL6153138, “Discovery of Novel Aromatic Urea-Imidazole Salt Derivatives for Cancer Therapy via Targeting ERK1/2” (J Med Chem, 2025)
The source made the active and inactive calls. The rule behind the calls is not given here.

Tests used:
MCF7 [1] = assay: Effect on MEK1/2 phosphorylation expression in human MCF7 cells at 0.5 to 2 uM measured after 30 mins to 4 hrs by Western blot analysis; assay type: functional, cell-based; settings: dose 0.5-2 µM, time 30-240 min
MCF7 [2] = assay: Inhibition of proliferation in human MCF7 cells at 0.5 to 2 uM incubated for 48 hrs by EdU incorporation assay; assay type: functional, cell-based; settings: dose 0.5-2 µM
MCF7 [3] = assay: Induction of apoptosis in human MCF7 cells assessed as early apoptotic cells at 1 uM incubated for 48 hrs in presence of 3-methyladenine by Annexin V/FITC and PI staining based flow cytometry analysis (reference value: 8.14%); assay type: functional
MCF7 [4] = assay: Effect on MEK1/2 expression in human MCF7 cells at 0.5 to 2 uM measured after 30 mins to 4 hrs by Western blot analysis; assay type: functional, cell-based; settings: dose 0.5-2 µM, time 30-240 min
Mitochondrial membrane [5] = assay: Induction of mitochondrial membrane potential loss in human MCF7 cells assessed as increase in JC-1 monomers by measuring increase in green fluorescence at 1 uM by flow cytometry analysis (reference value: 38.0%); assay type: cell membranes
[6] = AUC (0 to t) in Sprague-Dawley rat at 1 mg/kg, iv by LC-MS/MS analysis; assay type: ADME, organism-based; settings: in vivo
[7] = biological target: Non-receptor tyrosine-protein kinase TYK2 (Homo sapiens) (UniProt P29597); assay: Inhibition of human TYK2 at 10000 nM by DiscoverX KINOMEscan assay relative to control
Non-receptor tyrosine-protein kinase TYK2 (Homo sapiens), sequence (P29597 whole entry): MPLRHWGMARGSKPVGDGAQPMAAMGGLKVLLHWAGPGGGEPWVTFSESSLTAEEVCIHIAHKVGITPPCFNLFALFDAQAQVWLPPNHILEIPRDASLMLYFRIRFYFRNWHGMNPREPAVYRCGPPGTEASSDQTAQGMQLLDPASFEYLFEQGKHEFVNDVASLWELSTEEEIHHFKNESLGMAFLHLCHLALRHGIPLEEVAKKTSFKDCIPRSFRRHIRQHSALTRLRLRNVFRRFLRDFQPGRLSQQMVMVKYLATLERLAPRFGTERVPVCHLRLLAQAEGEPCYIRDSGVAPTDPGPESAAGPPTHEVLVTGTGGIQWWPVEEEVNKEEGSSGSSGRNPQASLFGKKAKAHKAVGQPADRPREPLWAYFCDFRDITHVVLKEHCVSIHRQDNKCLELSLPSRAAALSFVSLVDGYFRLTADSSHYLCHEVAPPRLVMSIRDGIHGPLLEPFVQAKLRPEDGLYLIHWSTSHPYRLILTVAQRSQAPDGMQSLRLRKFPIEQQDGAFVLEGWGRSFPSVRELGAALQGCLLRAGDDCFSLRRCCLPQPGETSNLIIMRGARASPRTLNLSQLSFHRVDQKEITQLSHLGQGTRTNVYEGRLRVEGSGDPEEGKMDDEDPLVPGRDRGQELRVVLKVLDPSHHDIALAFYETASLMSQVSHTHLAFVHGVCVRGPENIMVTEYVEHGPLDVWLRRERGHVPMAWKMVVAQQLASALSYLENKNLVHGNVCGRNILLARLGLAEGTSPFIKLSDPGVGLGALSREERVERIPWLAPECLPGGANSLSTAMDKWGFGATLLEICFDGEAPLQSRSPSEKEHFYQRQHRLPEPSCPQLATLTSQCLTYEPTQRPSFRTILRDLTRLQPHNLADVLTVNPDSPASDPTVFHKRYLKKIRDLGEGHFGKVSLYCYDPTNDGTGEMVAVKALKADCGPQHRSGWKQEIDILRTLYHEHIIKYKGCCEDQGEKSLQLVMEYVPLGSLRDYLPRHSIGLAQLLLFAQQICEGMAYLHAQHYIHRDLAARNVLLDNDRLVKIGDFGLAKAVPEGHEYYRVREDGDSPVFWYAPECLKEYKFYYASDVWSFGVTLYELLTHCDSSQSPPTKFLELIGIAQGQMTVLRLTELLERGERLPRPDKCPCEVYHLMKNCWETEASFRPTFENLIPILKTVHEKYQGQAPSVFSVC

4T1 [8] = assay: Antitumor activity against mouse 4T1 cells implanted in female BALB/c mouse model assessed as tumor growth inhibition at 50 mg/kg, po qd measured for 18 days relative to control; assay type: functional; settings: 4T1, 432 h, time 18 day, read-out: TGI
MCF7 [9] = assay: Induction of apoptosis in human MCF7 cells assessed as late apoptotic cells at 1 uM incubated for 48 hrs by Annexin V/FITC and PI staining based flow cytometry analysis (reference value: 3.65%); assay type: functional
[10] = Toxicity in female BALB/c mouse assessed as effect TP level in serum at 25 to 50 mg/kg, po qd measured after 18 days by biochemical analysis; assay type: organism-based; settings: in vivo, 432 h, dose 25-50 mg/kg, time 18 day
[11] = Toxicity in female BALB/c mouse assessed as effect on heart at 25 to 50 mg/kg, po qd measured after 18 days by H and E staining based analysis; assay type: organism-based; settings: in vivo, 432 h, dose 25-50 mg/kg, time 18 day
MCF7 [12] = assay: Inhibition of colony formation in human MCF7 cells at 1 uM incubated for 6 hrs in presence of 3-methyladenine by crystal violet staining based analysis; assay type: functional, cell-based
MCF7 [13] = assay: Induction of autophagy in human MCF7 cells assessed as upregulation of beclin1 expression incubated for 48 hrs by Western blotting analysis; assay type: functional, cell-based; settings: dose 0.5-2 µM
[14] = Clearance in Sprague-Dawley rat at 1 mg/kg, iv by LC-MS/MS analysis; assay type: ADME, organism-based; settings: in vivo
MCF7 [15] = assay: Inhibition of colony formation in human MCF7 cells harbouring ERK2 knockout at 1 uM incubated for 48 hrs by crystal violet staining based microscopic analysis; assay type: functional, cell-based
MCF7 [16] = assay: Upregulation of ERK1/2 phosphorylation expression in human MCF7 cells at 2 uM measured after 8 hrs by immunofluorescence analysis; assay type: functional, cell-based
MCF7 [17] = assay: Inhibition of colony formation in human MCF7 cells harbouring ERK1 knockout at 1 uM incubated for 48 hrs by crystal violet staining based microscopic analysis; assay type: functional, cell-based
MCF7 [18] = assay: Induction of autophagy in human MCF7 cells assessed as increase in LC3B-II level at 1 uM by Western blot analysis; assay type: functional, cell-based
[19] = Toxicity in female BALB/c mouse assessed as effect on kidney at 50 mg/kg, po qd measured after 18 days in presence of chloroquine by H and E staining based analysis; assay type: organism-based; settings: in vivo, 432 h, time 18 day
MCF7 [20] = assay: Induction of autophagy in human MCF7 cells harbouring ATG5 knockout assessed as increase in LC3B expression at 1 uM incubated for 48 hrs by Western blot analysis; assay type: functional, cell-based
MCF7 [21] = assay: Activation of ERK1/2 pathway in human MCF7 cells assessed as increase in EGF-induced ERK phosphorylation at 2 uM incubated for 30 mins by Western blot analysis; assay type: cell-based; settings: filed as activator
4T1 [22] = assay: Antitumor activity against mouse 4T1 cells implanted in female BALB/c mouse model assessed as tumor growth inhibition at 50 mg/kg, po qd measured for 18 days in presence of chloroquine relative to control; assay type: functional; settings: 4T1, 432 h, time 18 day, read-out: TGI
A-375 = assay: Antiproliferative activity against human A-375 cells expressing B-Raf V600E mutant; assay type: functional, cell-based
[23] = Toxicity in female BALB/c mouse assessed as effect on tumor at 25 to 50 mg/kg, po qd measured after 18 days by H and E staining based analysis; assay type: organism-based; settings: in vivo, 432 h, dose 25-50 mg/kg, time 18 day
[24] = Toxicity in female BALB/c mouse assessed as effect on spleen at 50 mg/kg, po qd measured after 18 days in presence of chloroquine by H and E staining based analysis; assay type: organism-based; settings: in vivo, 432 h, time 18 day
MCF7 [25] = assay: Upregulation of C-caspase3 protein expression in human MCF-7 cells at 1 uM incubated for 6 hrs in presence of chloroquine by Western blot analysis; assay type: functional, cell-based
Mitochondrial membrane [26] = assay: Induction of mitochondrial membrane potential loss in human MCF7 cells assessed as reduction in JC-1 aggregates by measuring decrease in red fluorescence at 1 uM by flow cytometry analysis (reference value: 24.7%); assay type: cell membranes; parameters: scale not given: the % may be the effect or the level left
4T1-Luc = assay: Anti-metastatic activity in mouse 4T1-Luc cells assessed as reduction in condensed nuclei at 25 to 50 mg/kg, po measured after 20 days by H and E staining based analysis; assay type: functional, organism-based; settings: dose 25-50 mg/kg, time 20.0 day
MCF7 [27] = assay: Induction of autophagy in human MCF7 cells harbouring beclin1 knockout assessed as increase in LC3B expression at 1 uM incubated for 48 hrs by Western blot analysis; assay type: functional, cell-based
MCF7 [28] = assay: Inhibition of cell migration in human MCF7 cells at 0.5 to 2 uM incubated for 48 hrs by wound healing assay; assay type: functional, cell-based; settings: dose 0.5-2 µM
[29] = Toxicity in female BALB/c mouse assessed as effect on liver at 50 mg/kg, po qd measured after 18 days in presence of chloroquine by H and E staining based analysis; assay type: organism-based; settings: in vivo, 432 h, time 18 day
MCF7 [30] = assay: Induction of apoptosis in human MCF7 cells assessed as early apoptotic cells at 1 uM incubated for 48 hrs by Annexin V/FITC and PI staining based flow cytometry analysis (reference value: 1.1%); assay type: functional
[31] = biological target: Mitogen-activated protein kinase 1 (Homo sapiens, UniProt P28482); assay: Inhibition of ERK2 (unknown origin) incubated for 60 mins by luminescence based ADP-Glo kinase assay
Mitogen-activated protein kinase 1, sequence (P28482 whole entry): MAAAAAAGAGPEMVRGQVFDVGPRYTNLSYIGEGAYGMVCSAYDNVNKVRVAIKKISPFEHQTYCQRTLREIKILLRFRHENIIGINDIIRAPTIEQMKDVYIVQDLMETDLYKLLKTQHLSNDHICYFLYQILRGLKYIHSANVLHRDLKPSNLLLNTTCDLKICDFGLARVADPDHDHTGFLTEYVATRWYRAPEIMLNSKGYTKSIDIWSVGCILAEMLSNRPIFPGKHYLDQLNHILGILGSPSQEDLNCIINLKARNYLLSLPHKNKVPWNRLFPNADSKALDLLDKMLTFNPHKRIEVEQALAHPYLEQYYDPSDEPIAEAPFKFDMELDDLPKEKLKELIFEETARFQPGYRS

O=C(Nc1cc(C(F)(F)F)cc(C(F)(F)F)c1)N[C@@H](Cc1ccccc1)Cn1c[n+](Cc2ccc3ccccc3c2)c2ccccc21.[Br-]
Activity (MCF7 [1]): inactive
inhibition (MCF7 [2]): Active
Activity (MCF7 [3]): 3.81%
Activity (MCF7 [4]): inactive
Activity (Mitochondrial membrane [5]): 48.9%
AUC(0-t) [6]: 1040 ng·h/mL
inhibition [7]: 14%
inhibition in vivo at 50 mg/kg (4T1 [8]): 54.9%
Activity (MCF7 [9]): 13.7%
Activity [10]: Non-toxic
Activity [11]: Non-toxic
inhibition (MCF7 [12]): Active
Activity (MCF7 [13]): Dose-dependent-effect
clearance [14]: 15.2 mL/min/kg
inhibition (MCF7 [15]): inactive
Activity (MCF7 [16]): Active
inhibition (MCF7 [17]): inactive
Activity (MCF7 [18]): Active
Activity [19]: Non-toxic
Activity (MCF7 [20]): inactive
Activity (MCF7 [21]): Active
inhibition in vivo at 50 mg/kg (4T1 [22]): 88.1%
IC50 (A-375): 750 nM
Activity [23]: Non-toxic
Activity [24]: Non-toxic
Activity (MCF7 [25]): Active
Activity (Mitochondrial membrane [26]): 9.86%
Activity (4T1-Luc): Active
Activity (MCF7 [27]): inactive
inhibition (MCF7 [28]): Active
Activity [29]: Non-toxic
Activity (MCF7 [30]): 11.6%
IC50 [31]: 97.9 nM
